Measurements: patent US11573241B2, “Total cellular iron as a marker of cancer stem cells and uses thereof” (Institut National de la Sante et de la Recherche Medicale …, priority 2016, dated 2023)

Assays:
[1] = test system: HMLER CD24^low cells; assay: Annexin V/PI assay; format: cell-based, human; details: 0.5 μM, 72 h
Protocol: Annexin V/PI assay. Cells were treated as indicated. After treatment, cell death was quantified using Annexin V-FITC/Propidium Iodide (PI) assay according to the manufacturer's protocol (FITC Annexin V Apoptosis Detection Kit II, 556570, BD Pharmingen™) and analyzed by a LSRFortessa™ flow cytometer (BD Bioscience, San Jose, Calif.). The data were processed using Cell Quest software (BD Biosciences).

[2] = test system: HMLER CD24^low and iCSCL-10A2 cells; assay: Lipid ROS measurements (Bodipy-C11); format: cell-based; details: 0.5 μM, 48 h
Protocol: Lipid ROS measurements. Cells were treated with Sal or AM5 (0.5 μM) as indicated. Then, cells were trypsinized and washed with PBS. Subsequently, cells were incubated with Bodipy-C11® (D3861, Thermo Fisher Scientific, 2 μM) at 37° C. for 60 min. Next, cells were washed twice with PBS. […] The data were processed using Cell Quest software (BD Biosciences) and FlowJo software (FLOWJO, LLC). For cell imaging, cells were treated as indicated in the main figure (Bodipy-C11®, 1 μM, 1 h), then fixed with formaldehyde (2% in PBS, 12 min) and analyzed by fluorescence microscopy (ex. 488 nm).

[3] = test system: non-CSC (HMLER CD24^high ID2) cells; assay: Immunoblotting of iron homeostasis regulatory proteins; format: cell-based, human
Protocol: Immunoblotting. Cells were treated as indicated, then washed twice with PBS and lysed with 2× Laemmli buffer. Cell extracts were heated at 95° C. for 5 min, sheared through a 26-gauge needle and quantified with a Nanodrop 2000 (Thermo Scientific). Protein lysates (˜100 μg) were resolved by SDS-PAGE electrophoresis and transferred onto PVDF membranes (Amersham). Membranes were blocked with 5% BSA, 0.1% Tween-20/TBS for 1 h. The blots were then probed with the relevant primary antibodies in 5% BSA, 0.1% Tween-20/TBS at 4° C. overnight with gentle agitation. Membranes were washed with 0.1% Tween-20/TBS for 30 min and were incubated with secondary antibodies for 1 h at RT. Antigens were detected by ECL (Amersham). Imaging was performed using a ChemiDoc™ XRS+ System (Biorad).

[4] = test system: HMLER CD24^low cells; assay: Localization of intracellular iron(II) with RhoNox-1; format: cell-based, human; details: 0.5 μM, 48 h; for lysotracker-positive vesicles colocalized with the RhoNox-1 probe: fixed cells
Protocol: Localization of intracellular iron(II). RhoNox-1 was synthesized according to the original procedure described in […]. Cells were washed with 1× Hank's Balanced Salt Solution (HBSS, 14025-092, Life technologies) three times, then incubated with 5 μM of RhoNox-1/HBSS for 1 h at 37° C., 5% CO2 and washed with HBSS. Co-staining was performed by adding 100 nM LysoTracker Deep Red and Hoechst 33342 (H1399, Sigma, final concentration of 1 μg/mL) in HBSS. Experiments were performed with a 60×APO TIRF oil immersion objective of Nipkow Spinning Disk confocal system.

[5] = test system: HMLER CD24^low cells; assay: Immunoblotting of iron homeostasis regulatory proteins; format: cell-based, human; details: for level of autophagy marker protein LC3-II: 24 h; for levels of IRP2, TfR and ferritin: immunoblotting
[6] = test system: HMLER CD24^low and iCSCL-10A2 cells; assay: Intracellular GSH level quantification; format: cell-based; details: 0.5 μM
Protocol: Intracellular GSH level quantification. Cells were treated with Sal or AM5 (0.5 μM) as indicated, then harvested and counted. The intracellular GSH level was measured using a commercial kit (ab205811, Abcam) according to the manufacturer's protocol.

SMILES	form of cell death [1]	lipid ROS (Bodipy-C11 staining) [2]	level of ferritin [3]	response of IRP2 and TfR levels [3]	staining of iron(II) (subcellular localization) [4]	lysotracker-positive vesicles colocalized with the RhoNox-1 probe [4]	level of autophagy marker protein LC3-II [5]	levels of IRP2, TfR and ferritin [5]	endogenous levels of GSH [6]
C#CCN[C@@H]1C=C[C@]2(O[C@H]([C@@H](CC)C(=O)[C@@H](C)[C@@H](O)[C@H](C)C3O[C@@H](C(CC)C(=O)O)CC[C@@H]3C)[C@@H](C)C[C@H]2C)O[C@@]12CC[C@@](C)([C@H]1CC[C@](O)(CC)[C@H](C)O1)O2 (stereo partly drawn) [AM5, Sal-Propargylamine]	ferroptosis	presence of lipid peroxidation	reduced the level of ferritin	did not observe a response characteristic of a cytosolic depletion of iron	restricted to the lysosomal compartment	approximately 80%	increased	increased levels of iron-responsive element-binding protein 2 (IRP2) and transferrin receptor (TfR) along with reduced levels of ferritin	diminution of endogenous levels of the ROS scavenger glutathione (GSH)
CC[C@@H](C(=O)[C@@H](C)[C@@H](O)[C@H](C)[C@@H]1O[C@@H]([C@@H](CC)C(=O)O)CC[C@@H]1C)[C@H]1O[C@]2(C=C[C@@H](O)[C@]3(CC[C@@](C)([C@H]4CC[C@](O)(CC)[C@H](C)O4)O3)O2)[C@H](C)C[C@@H]1C [Sal, salinomycin, reference compound]	ferroptosis	presence of lipid peroxidation	reduced the level of ferritin	did not observe a response characteristic of a cytosolic depletion of iron	restricted to the lysosomal compartment	approximately 80%	increased	increased levels of iron-responsive element-binding protein 2 (IRP2) and transferrin receptor (TfR) along with reduced levels of ferritin	diminution of endogenous levels of the ROS scavenger glutathione (GSH)
